Data as given in PubChem BioAssay AID463136 (University of Pittsburgh Molecular Library Screening Center, 2010).
Results filed as inconclusive are left out. The source made the active and inactive calls. How the calls were made is not given here.

Key:
[1] = system: HCS imaging, dynein-mediated cargo transport inhibition; assay: dynein cargo transport inhibitors, potency, dose response, imaging, high-content imaging (AID 463136);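 further: mouse mammary adenocarcinoma 3617.4 cells expressing GFP-tagged rat glucocorticoid receptor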; on inhibition: reference of the scale not given here
[2] = as above; conditions: HCS imaging, dynein-mediated cargo transport inhibition; inhibition at max concentration; at 50 µM; stronger effect = higher value

SMILES | IC50 [1] | inhibition [2]
COc1ccc(/C=C/C(=O)c2c(O)c(OC)c3occc3c2OC)cc1 | > 50 µM (inactive) | 30.2%
N#CC12COC3(CCCCC3C1(C#N)C#N)OC2=N (stereo unspecified) | > 50 µM (inactive) | 8.2%
O=[N+]([O-])/C=C/c1cn(Cc2ccc(F)cc2)c2ccccc12 | > 50 µM (inactive) | 14%
COc1ccc(Oc2cc(NC(=O)c3nn(C)cc3[N+](=O)[O-])cc([N+](=O)[O-])c2)cc1 | 43 µM | 69.9%
CCOC(=O)C(=Cc1ccc(-n2cncn2)cc1)C(=O)OCC | 33.7 µM | 89.8%
COc1cc(C2Oc3ccccc3C=C2[N+](=O)[O-])cc(OC)c1OC (stereo unspecified) | 25.5 µM | 63.7%
C[C@@H]1C[C@@H]2O[C@H]2/C=C\C=C\C(=O)Cc2c(Cl)c(O)cc(O)c2C(=O)O1 | 0.281 µM | 49.4%
O=C(Cn1ncc(Cl)c(Cl)c1=O)N1CCN(S(=O)(=O)c2ccc3ccccc3c2)CC1 | 24.1 µM | 65.1%
Nc1c(C(=O)C2CC2)sc2nc(-c3cccs3)cc(C(F)(F)F)c12 | 38.7 µM | 66.4%
N#Cc1c(C(F)(F)F)cc(-c2ccccc2)nc1SCc1nc(N)nc(N2CCOCC2)n1 | > 50 µM (inactive) | 8.72%
N#C/C(=C/c1ccc(N2CCCCCC2)o1)c1ccc(Cl)cc1 | > 50 µM (inactive) | 23.1%
COC(=O)c1cc(=O)n(Cc2ccc(F)cc2)c(=Nc2ccccc2)s1 | > 50 µM (inactive) | 15.5%
Cc1cc(C(=O)CCl)c(C)n1Cc1ccco1 | 13.5 µM | 85.7%
Cc1[nH]c2ccccc2c1/C=N/Nc1ccc([N+](=O)[O-])cc1S(=O)(=O)Nc1ccc(Cl)cc1 | 22.8 µM | 112%
CC1=NN(c2ccccc2)C(=O)/C1=C/C=C/c1ccccc1 | > 50 µM (inactive) | 22.7%
Cc1ccc(N(C(=O)CCl)C(C(=O)NC2CCCCC2)c2cccnc2)cc1C (stereo unspecified) | 4.62 µM | 86.1%
CC1C/C(=C/c2ccco2)C(=O)/C(=C/c2ccco2)C1 (stereo unspecified) | 39.2 µM | 64.1%
O=C1C=CC2C(c3ccc4c(c3)OCO4)CC1N2Cc1ccccc1 (stereo unspecified) | > 50 µM (inactive) | 13%
C=C1C(=O)C=C2CN(C(=O)c3ccccc3)[C@@](Cc3ccc(F)cc3)(C(=O)OC)[C@@H]12 | 4 µM | 80.3%
CCC(=O)Nc1ccc(C(=O)Cn2ncc(Cl)c(Cl)c2=O)cc1 | 15.7 µM | 72.4%
O=C1C=CC(=O)N1CCNc1ncc(C(F)(F)F)cc1Cl | > 50 µM (inactive) | 21.2%

SMILES | IC50 [1] | inhibition [2]
N#C/C(=C/c1ccc(N2CCCCC2)o1)C(=O)NCCc1c[nH]c2ccccc12 | 31.8 µM | 98.8%
Cc1ccc(SC(=O)c2c(C)noc2-c2cc(C)on2)cc1 | > 50 µM (inactive) | 37.3%
CCCCc1cc(O)c(CCCC)c(O)c1 | 2.31 µM | 76.8%
Cc1cc(-c2n[nH]c(=S)n2/N=C/C(Br)=C/c2ccccc2)n[nH]1 | 16.5 µM | 82.9%
COc1ccc(-n2cccc2/C=C/[N+](=O)[O-])cc1 | > 50 µM (inactive) | 14.4%
Cc1nc([N+](=O)[O-])c(Br)n1CC(=O)c1ccc2ccccc2c1 | 5.15 µM | 81.3%
COc1cccc(/C=C/C(=O)c2cccc([N+](=O)[O-])c2)c1OC | > 50 µM (inactive) | 27.1%
O=C(c1ccc(F)cc1)C(CN1CCOCC1)c1ccccc1 (stereo unspecified) | 7.15 µM | 85.7%
O=c1c(Cl)c(Cl)cnn1Cc1nnc(-c2ccc(Cl)cc2)o1 | 22.9 µM | 69.6%
O=c1[nH]sc2cc(F)ccc12 | 12 µM | 91.3%
COc1ccc(OC)c(CCNC(=O)Cn2sc3nc(C)cc(C)c3c2=O)c1 | 29.1 µM | 93.6%
CCCCN(C)C1=CC2=CC(=C(C#N)C#N)CCC2CC1 (stereo unspecified) | 13.6 µM | 99.2%
CCCSc1cc(NCCOC(=O)CCC)c([N+](=O)[O-])c2nonc12 | 28.4 µM | 59.1%
COc1ccc(/C=C\c2nc(=O)c3ccccc3o2)cc1 | 6.91 µM | 86.9%
Cc1nn(C)c(C(=O)Sc2cccc(Cl)c2)c1[N+](=O)[O-] | > 50 µM (inactive) | 10.5%
COc1cccc(N(C(=O)CCl)C(C(=O)NCCc2ccccc2)c2cccs2)c1 (stereo unspecified) | 27.1 µM | 85.4%
CC(C(Sc1ccccc1N)c1ccccc1)[N+](=O)[O-] (stereo unspecified) | 24.7 µM | 84.4%
CC(C)N1C/C(=C/c2cccnc2)C(=O)/C(=C/c2cccnc2)C1 | 8.41 µM | 83%
C#CC(=O)N(c1ccc(OC)cc1OC)C(C(=O)NC1CCCC1)c1cccs1 (stereo unspecified) | > 50 µM (inactive) | 0.987%
CCCNC(=O)c1nnsc1S(=O)(=O)c1ccc(Cl)cc1 | 8.66 µM | 69.3%
CN1CCN(S(=O)(=O)c2ccc(Sc3nnnn3-c3ccccc3)c([N+](=O)[O-])c2)CC1 | 17.5 µM | 75.4%

SMILES | IC50 [1] | inhibition [2]
CCOC(=O)CC1C(=O)NCCN1c1nc2ccc(C)cn2c(=O)c1/C=C1\SC(=S)N(C(C)CC)C1=O (stereo unspecified) | 27.3 µM | 80.8%
O=C(OCn1ncc(Br)c(Br)c1=O)c1c(F)cccc1F | 18.5 µM | 81.6%
O=c1cc(C(F)(F)F)c2cc3c4c(c2o1)CCCN4CCC3 | 5.51 µM | 99.6%
O=C(/C=C/c1ccccc1Cl)c1cccnc1 | 17.2 µM | 85.3%
O=C(Nc1ccccc1)c1nnsc1S(=O)c1ccc(Cl)cc1 (stereo unspecified) | > 50 µM (inactive) | 32.1%
Cc1ccc(N2C(=O)NC(=O)/C(=C/C=C/c3ccco3)C2=O)cc1 | 24.8 µM | 114%
O=C(OCCN1C(=O)c2cccc3c(N4CCOCC4)ccc(c23)C1=O)c1ccc(Cl)cc1Cl | > 50 µM (inactive) | 2.73%
O=[N+]([O-])c1ccc(NCc2ccccc2)c2nonc12 | 26.9 µM | 99.5%
O=C(CCl)Nc1cc(SCC(O)CO)cc([N+](=O)[O-])c1 (stereo unspecified) | 10.5 µM | 88%
COCCN(C(=O)CCl)C(C(=O)NC1CCCCC1)c1ccccc1C (stereo unspecified) | 24.8 µM | 79.5%
Cc1cc2oc(=O)cc(Cn3ncc(Cl)c(Cl)c3=O)c2cc1Cl | 20.1 µM | 65.7%
CCCn1c(CC)nc([N+](=O)[O-])c1S(=O)(=O)c1ccccc1 | 7.21 µM | 85.2%
Cc1cc(C)cc(N2C(=O)NC(=O)/C(=C\C=C\c3ccco3)C2=O)c1 | 32.3 µM | 88%
CCn1c(=O)c([N+](=O)[O-])c(Cl)c2ccccc21 | 30.3 µM | 83.9%
COC(=O)CS(=O)(=O)c1nnc([C@H](Cc2ccccc2)NC(=O)OC(C)(C)C)o1 | > 50 µM (inactive) | 34.1%
Cn1cnc([N+](=O)[O-])c1S(=O)(=O)c1ccc(Cl)cc1 | 3.72 µM | 78.2%
CC(=O)Nc1sc(/C(C#N)=C/c2ccc(Cl)c(Cl)c2)nc1-c1ccc(C)cc1 | 0.491 µM | 102%
COC(=O)/C=C\C(=O)Nc1cccc([N+](=O)[O-])c1 | > 50 µM (inactive) | 5.31%
O=C(COc1ccc(/C=C\[N+](=O)[O-])cc1)N1CCOCC1 | > 50 µM (inactive) | 13.7%
Cn1c(=O)c([N+](=O)[O-])c(Cl)c2ccccc21 | 39.4 µM | 84%
COc1ccc(OC)c(N2C(=O)NC(=O)/C(=C/c3ccc([N+](=O)[O-])s3)C2=O)c1 | 12.5 µM | 86.6%

SMILES | IC50 [1] | inhibition [2]
N=c1oc2c3c4c(cc2cc1C(=O)Nc1ccccc1)CCCN4CCC3 | > 50 µM (inactive) | 99%
Cc1ccc(N2C(=O)NC(=O)/C(=C\C=C\c3ccco3)C2=O)cc1C | 32.4 µM | 83.1%
CC1CCc2cc(F)ccc2N1C(=O)CCl (stereo unspecified) | 10.5 µM | 77.7%
O=C(OCn1ncc(Br)c(Br)c1=O)c1ccc(F)cc1 | 7.52 µM | 55%
CCOC(=O)c1cn(-c2c(Cl)cccc2Cl)c2cc(Cl)c([N+](=O)[O-])cc2c1=O | 29 µM | 82.8%
Nc1cccc2c1C(=O)N(C(=O)/C=C/c1cccc(F)c1)C2=O | > 50 µM (inactive) | 14.3%
COC(=O)c1cc(=O)n(Cc2ccc(OC)c(OC)c2)c(=Nc2ccc(F)cc2)s1 | 24.6 µM | 74.3%
O=[N+]([O-])c1cc(S(=O)(=O)N2CCCCCC2)ccc1F | 33.7 µM | 87.3%
CCc1ccccc1NC(=O)CN(C)C(=O)Cn1ncc(Cl)c(Cl)c1=O | 7.32 µM | 81.8%
CCOc1ccc(-n2c(C)cc(C(=O)CCl)c2C)cc1 | 24.9 µM | 82.2%
N#Cc1ccccc1Cn1cc(/C=C/[N+](=O)[O-])c2ccccc21 | 34.6 µM | 83.6%
Cc1cccc(N2C(=O)NC(=O)/C(=C\C=C\c3ccco3)C2=O)c1 | 33.4 µM | 89.4%
O=C1/C(=C/c2ccc(N3CCOCC3)o2)SC(=Nc2ccccc2)N1CCc1c[nH]c2ccccc12 | 1.2 µM | 95.6%
CC(C)(C)c1cc(CN(CCO)CCO)cc(C(C)(C)C)c1O | > 50 µM (inactive) | 33.9%
CCOc1cc(/C=C\[N+](=O)[O-])ccc1OCC(=O)N1CCOCC1 | 37.4 µM | 76.4%
CCOC(=O)c1c(NC(=S)N2CCCCC2)sc2c1CCN(C(=O)OCC)C2 | > 50 µM (inactive) | 30.3%
Cc1ccc(C(C)C)c(OCC(=O)NN=C(CCl)CCl)c1 | > 50 µM (inactive) | 36.3%
CSc1nnc(C)c(/C=C/Nc2ccc(C)cc2)n1 | 31 µM | 109%
Cn1c(=O)c([N+](=O)[O-])c(Oc2ccccc2)c2ccccc21 | > 50 µM (inactive) | 15.3%
CC1CCN(C(=O)c2ccc3c(Cl)c4c(nc3c2)CCCC4)CC1 | 21.4 µM | 76.6%
